Values quoted from earlier work as cited in patent US20080103199A1, “TREATMENT OF PERVASIVE DEVELOPMENTAL DISORDERS” (priority 2006, published 2008).

Columns and labels:
submissive rats = settings: treatment of the submissive subject, 3 weeks; literature (Malatynska 2002); cited from earlier work
dominant rats = settings: administered to dominant rats; literature (Malatynska 2002); cited from earlier work

CN1C(=O)CN=C(c2ccccc2)c2cc(Cl)ccc21 [diazepam]
Effect on submissive behavior (submissive rats): ineffective

CNCCC(Oc1ccc(C(F)(F)F)cc1)c1ccccc1 (stereo not shown) [fluoxetine]
Effect on submissive behavior (submissive rats): reduced submissive behavior

NC(=O)N1c2ccccc2C=Cc2ccccc21 [carbamazepine]
Effect on competitive behavior of dominant rats (dominant rats): significantly reduced competitive behavior

CNCCCN1c2ccccc2CCc2ccccc21 [desipramine]
Effect on submissive behavior (submissive rats): reduced submissive behavior
